“Also recorded” adds a separate entry of the source.
What was measured:
[1] = tested on: HL-60 human leukemia cells; details: cited from earlier work
breast cancer cells [2] = assay: Growth of analogue-differentiated breast cancer cells transplanted in athymic mice; assay type: in vivo, mouse; details: cells differentiated with the analogue before transplantation
MCF1Oneo = assay: Growth of human breast cancer cell line; assay type: cell-based
ZR 75 = assay: Growth of human breast cancer cell line; assay type: cell-based
[3] = Stability studies on storage; assay type: physicochemical; details: 20° C.
T47D = assay: Growth of human breast cancer cell line; assay type: cell-based
[4] = Calcemic activity: plasma calcium levels in vitamin D-deficient rats; assay type: in vivo, rat; details: for increase in plasma calcium over vehicle-treated control group: 0.042 μg/kg per day; for increase in plasma calcium level compared with vehicle-treated rats: higher concentration, 0.25 μg/kg per day; for Plasma calcium: vitamin D-deficient rats, means +/− standard deviation
Procedure: Three-week-old Sprangue-Dawley male rats were obtained from the Holtzman Laboratory, Madison, Wis. Up to three rats were housed together in a polycarbonate cage. The animal cages were kept under yellow light. The rats (eight to 10 per group per concentration of both vitamin D analogues used) were fed a vitamin D-free diet containing 0.47 g/100 g calcium and 0.3 g/100 g phosphorus. After the rats had consumed this diet for 3 weeks, their plasma calcium levels were measured. […] Such rats were administered appropriate vitamin D analogues intragastrically for 14 days. At the end of this period, the plasma calcium levels were again measured. • 3. Induction Of Preneoplastic Lesions In Mammary Glands And Their Prevention By Vitamin D3 and D5 Analogues

[5] = tested on: 7,12-dimethylbenz[a]anthracene-induced lesions in BALB/c mouse mammary glands; assay: DMBA-induced mammary lesions in mouse mammary gland organ culture; assay type: cell-based; details: for number of glands exhibiting lesions / lesion formation, dependence on concentration: 0.01 μM to 10.0 μM; for No. of glands with lesions/total No. of glands treated: 10 days in culture; for % incidence of lesions: control 60.0
Procedure: Young, virgin BALB/c female mice, 3-4 weeks of age, were obtained from Charles River Laboratories, Wilmington, Mass. The mice were pretreated for 9 days with 17β-estradiol (1 μg in 0.1 mL saline per animal) and progesterone (1 mg in 0.1 mL saline per animal). They were then killed by cervical dislocation, and the thoracic pair of mammary glands was dissected out on silk rafts and incubated for 10 days in Waymouth MB752 medium (Life Technologies, Inc. [GIBCO BRL], Gauthersburg, Md.) containing the following growth-promoting hormones: insulin (5 μg/mL), prolactin (5 μg/mL), aldosterone (1 μg/mL), and hydrocortisone (1 μg/mL).
The carcinogen 7,12-dimethylbenz [a] anthracene (DMBA) at a dose of 2 μg/mL was added to the medium on day 3 for 24 hours to induce mammary lesions. The DMBA-containing medium was then removed, and the mammary glands were incubated for an additional 14 days with medium containing only insulin. […] These structures were termed “mammary lesions.”
The vitamin D analogues (ranging in concentration from 0.01 μM to 10.0 μM) were included in the medium during the first 10 days of the in vitro culture to determine if they lowered the incidence of mammary lesion formation. Throughout the culture period, the glands were maintained at 37° C. in an environment of 95% air and 5% CO2. At the end of the culture period, the glands were fixed in formalin, stained in alum-carmine solution, and evaluated for the presence or absence of mammary lesions. All hormones and chemicals were purchased from the Sigma Chemical Co., St. Louis, Mo. • 4. Immunohistochemistry Of VDRs And TGF-β1
To evaluate the efficacy of the newly synthesized vitamin D5 analogue in preventing mammary lesion formation, we incubated 15 mammary glands per group (135 glands in total) from BALB/c mice with appropriate hormones and exposed the glands to DMBA on day 3 for 24 hours (see “Experimental Equipment and Methods” section). The mammary glands were incubated for 10 days with the vitamin D analogues in concentrations ranging from 0.01 μM to 10.0 μM. The incidence of mammary lesions was calculated for each group and was reported as the ratio of the number of mammary glands showing lesions to the total number of mammary glands at risk.

MCF-7 = assay: Growth of human breast cancer cell line; assay type: cell-based
VDR = assay: Immunohistochemistry of VDRs in normal mouse mammary glands; assay type: cell-based; details: 3 days
Procedure: (§1) Normal mouse mammary glands were dissected and incubated with growth-promoting hormones either alone or in the presence of vitamin D analogues for only 3 days. In this experiment, the glands were not exposed to DMBA (see protocol described in the previous section). Instead, the glands were fixed in buffered formalin, and 5-μm-thick sections were prepared for histopathologic evaluations. The sections were mounted on adhesive-coated slides (Superfast: Fisher Scientific Co., Itasca, Ill.), dried at 60° C. for 1 hour, deparaffinized in xylene, […] in a series of alcohol, and finally washed with phosphate-buffered saline (PBS).
(§2) To block the nonspecific antibody reactions, we treated the tissue sections with 5% dried skim milk for 10 minutes and then incubated them with primary mouse antibody (either against VDR or against TGF-β1, both obtained from BioGenex Laboratories, San Ramon, Calif.) overnight at 0-4° C. […]
(§3) The tissues were counterstained with hematoxylin-eosin, dehydrated through graded series of alcohol and xylene, and finally mounted in Permount (Fisher Scientific Co.). Slides were evaluated for the presence or absence of the VDR or TGF-β1 and for the intensity of staining in the positively strained samples. • 5. […]

mammary glands = assay: Toxic effects and structural differentiation of mammary glands in organ culture; assay type: cell-based, mouse; details: for toxicity to the glands, overall: 0.1 μM or 1.0 μM tested; for toxicity to mammary glands, gland structure: 3 days
Procedure: as §1
To determine the effects of vitamin D analogues on the structural differentiation as well as their toxic effects on mammary glands, we incubated mammary glands with growth-promoting hormones for 3 days either alone or in the presence of 0.1 μM or 1.0 μM vitamin D analogues. The control mammary gland structure was represented by normal alveolar and ductal structures.

BCA-4 = assay: Growth of human breast cancer cell line; assay type: cell-based
breast cancer cells [6] = assay: Growth of breast cancer cells in athymic mice injected with the analogue; assay type: in vivo, mouse; details: injection of 8 mg, 3 × week/2 months, athymic mice bearing breast cancer cells
TGF-β1 = assay: Immunohistochemistry of TGF-β1 in normal mouse mammary glands; assay type: cell-based; details: 1.0 μM, 3 days
Procedure: as §1, §2, §3

[7] = 0.042 μg/kg/day intragastrically for 14 days
[8] = 0.25 μg/kg/day intragastrically for 14 days

Compound | stability in solution [3] | storage stability in powder form [3] | increase in plasma calcium over vehicle-treated control group [4] [%] | increase in plasma calcium level compared with vehicle-treated rats [4] [%] | Plasma calcium [4, 7] [mg/dL] | Plasma calcium [4, 8] [mg/dL] | No. of glands with lesions/total No. of glands treated ([5]; 0.01 μM) | % incidence of lesions ([5]; 0.01 μM) [%] | No. of glands with lesions/total No. of glands treated ([5]; 0.1 μM) | % incidence of lesions ([5]; 0.1 μM) [%] | No. of glands with lesions/total No. of glands treated ([5]; 1.0 μM) | % incidence of lesions ([5]; 1.0 μM) [%] | No. of glands with lesions/total No. of glands treated ([5]; 10.0 μM) | % incidence of lesions ([5]; 10.0 μM) [%] | toxicity to mammary glands, gland structure (mammary glands; 1.0 μM) | further results
C=C1/C(=C/C=C2\CCC[C@]3(C)C([C@H](C)CC#CC(O)(C(F)(F)F)C(F)(F)F)=CC[C@@H]23)C[C@@H](O)C[C@@H]1O [Ro24-5531, 1α, 25-dihydroxy-16-ene-23-yne-26,27-hexafluorocholecalciferol] | – | – | – | – | – | – | – | – | – | – | – | – | – | – | – | expression of TGF-β1 and its type 2 receptors [1]: induced expression
C=C1/C(=C\C=C2/CCC[C@]3(C)[C@@H]([C@H](C)CC[C@@H](CC)C(C)C)CC[C@@H]23)C[C@@H](O)C[C@@H]1O [1α(OH)D5, 1α-Hydroxyvitamin D5] | one month | a year | 11 | 50 | 6.0 ± 0.63 | 7.9 ± 1.5 | 6/16 | 37.5 | 4/16 | 25.0 | 2/14 | 14.3 | 0/15 | 0.0 | retained the healthy structural characteristics | growth of differentiated cells when transplanted in athymic mice (breast cancer cells [2]): did not grow; growth of cell line (MCF1Oneo): inhibited growth; growth of cell line (ZR 75): inhibited growth; growth of cell line (T47D): inhibited growth; calcemic effects compared with 1α,25(OH)2D3 ([4]; overall, both doses): overall lower calcemic effects; also recorded: much less calcemic; number of glands exhibiting lesions / lesion formation, dependence on concentration [5]: dose-related decrease; number of glands exhibiting lesions / lesion formation, dependence on concentration ([5]; listed as vitamin D5 analogue): inhibited the lesion formation in a dose-dependent manner; percent inhibition of formation of lesions ([5]; 10.0 μM): 100%; growth of cell line (MCF-7): inhibited growth; expression of VDRs (staining) in mammary epithelial cells (VDR; 0.1 μM (lower concentration)): much less; expression of VDRs (staining) in mammary epithelial cells (VDR; 1.0 μM): induced expression of VDRs; toxicity to the glands, overall (mammary glands): did not result in any toxicity; toxicity to the glands, overall (mammary glands; listed as vitamin D5 analogue): considerably less toxic than the vitamin D3 analogue; growth of cell line (BCA-4): inhibited growth; growth of cancer cells in the animals (breast cancer cells [6]): inhibited growth
C=C1/C(=C\C=C2/CCC[C@]3(C)[C@@H]([C@H](C)CCCC(C)(C)O)CC[C@@H]23)C[C@@H](O)C[C@@H]1O [1α,25(OH)2D3, 1α,25-dihydroxyvitamin D3, reference compound] | one month | a year | 50 | 87 | 8.1 ± 1.2 | 10.1 ± 1.8 | two of 14 | 14.3 | 0/15 | 0.0 | 0/15 | 0.0 | 0/15 | 0.0 | disintegration of ducts and structural toxicity to the glands | Plasma calcium ([4]; 0.042 μg/kg/day intragastrically for 14 days, listed as 1α, 25(OH)2D3): 8.1 ± 1.2 mg/dL; Plasma calcium ([4]; 0.25 μg/kg/day intragastrically for 14 days, listed as 1α, 25 (OH)2D3): 10.1 ± 1.8 mg/dL; No. of glands with lesions/total No. of glands treated ([5]; 0.01 μM, listed as 1,25α-dihydroxyvitamin D3): 2/14; mammary lesions ([5]; concentrations higher than 0.01 μM): no mammary lesions were observed; toxicity to mammary glands, gland structure (mammary glands; 0.1 μM): did not show toxicity; concentrations toxic to the glands (mammary glands; 3 days in organ culture): ≥ 1000 nM; induction of TGF-β1 in mammary epithelial cells (TGF-β1): much reduced
